According to patent US8722849B2, “Polypeptides” (Novo Nordisk A/S, priority 2011, dated 2014):
≈ marks a conversion by molar mass, not a printed value. Read-outs that look alike come from different tables or passages of the source. Starred links: 1 amine or outer side, 2 acyl side, 3 side chain; linkers in the order of their positions; H or OH if unused. Positions of bridges follow the written chain, without caps; N, C: chain ends. Residues, ends and D or L forms follow the SMILES beside them. *: point of attachment. C20 diacid = O=C(O)CCCCCCCCCCCCCCCCCCC(=O)*; C18 diacid = O=C(O)CCCCCCCCCCCCCCCCC(=O)*; γGlu = O=C(O)[C@H](CCC(=O)[*:2])N[*:1]

Tests used:
[1] = biological target: T1, rat amylin 3(a) receptor (rat calcitonin(a) receptor + rat RAMP3) (Rattus norvegicus, UniProt P32214+Q9JJ73); test: Assay (II)b functional cAMP FlashPlate assay, rat amylin receptor; type: cell-based; conditions: Table 11
T1 construct: expressed in transfected cells; host or cells: BHK tk'ts 13
T1 sequence (P32214 25-479 isoform P32214-2 limits assumed): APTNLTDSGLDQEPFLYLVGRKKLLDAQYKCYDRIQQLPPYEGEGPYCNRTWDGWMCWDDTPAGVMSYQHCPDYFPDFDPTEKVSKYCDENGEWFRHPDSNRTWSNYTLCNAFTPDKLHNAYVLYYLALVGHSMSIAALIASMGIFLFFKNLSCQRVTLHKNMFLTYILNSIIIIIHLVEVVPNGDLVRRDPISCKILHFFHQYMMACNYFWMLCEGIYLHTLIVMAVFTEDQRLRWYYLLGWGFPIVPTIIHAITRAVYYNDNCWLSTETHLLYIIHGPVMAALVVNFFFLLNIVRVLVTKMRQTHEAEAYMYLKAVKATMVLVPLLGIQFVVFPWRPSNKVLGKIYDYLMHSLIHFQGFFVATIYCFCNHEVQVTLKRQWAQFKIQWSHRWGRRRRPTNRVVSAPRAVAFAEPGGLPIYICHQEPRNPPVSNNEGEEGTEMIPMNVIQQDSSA
T1 sequence (Q9JJ73 23-147 partner): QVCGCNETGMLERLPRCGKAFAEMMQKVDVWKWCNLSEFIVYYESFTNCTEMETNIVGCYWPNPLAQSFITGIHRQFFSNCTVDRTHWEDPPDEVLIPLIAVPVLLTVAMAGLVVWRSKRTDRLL
Method in brief: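 cAMP accumulation in transiently transfected BHK tk'ts 13 cells, 100.000 cells/well, expressing rat calcitonin(a) receptor or its RAMP3 co-expression form (amylin 3(a)): 30 min stimulation with IBMX, 24 hours post-transfection. Readout by competition of cellular versus radiolabelled cAMP in FlashPlates, scintillation counted after 3 h.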

[2] = Assay (III) ThT fibrillation assay for physical stability; type: physicochemical
Method in brief: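 Freshly prepared formulations, pH-adjusted, with 1 μM ThT; four or eight replicates incubated at 37 °C under 960 rpm orbital shaking. Fluorescence (ex 444/em 485 nm) read every 20 min; […]. Peptide concentration measured by RP-HPLC before and after the run.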

[3] = Assay (IV) determination of solubility; type: physicochemical
Method in brief: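 Eight 100 mM buffers (glycylglycine pH 3.0–5.0, bistrispropane pH 6.0–8.0) each received an equal volume of polypeptide dissolved in water at ~500 nmol/ml. Soluble polypeptide was measured by HPLC following 18 hours at room temperature and centrifugation.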

[4] = bistrispropane buffer, pH 6, pH 6.0, read-out: Solubility pH 6.0
[5] = bistrispropane buffer, pH 6.5, pH 6.5, read-out: Solubility pH 6.5
[6] = bistrispropane buffer, pH 7, pH 7.0, read-out: Solubility pH 7.0
[7] = bistrispropane buffer, pH 7.5, pH 7.5, read-out: Solubility pH 7.5
[8] = bistrispropane buffer, pH 8, pH 8.0, read-out: Solubility pH 8.0
[9] = glycylglycine buffer, pH 3, pH 3.0, read-out: Solubility pH 3.0
[10] = glycylglycine buffer, pH 4, pH 4.0, 18 hours at room temperature, Table 2, read-out: Solubility pH 4.0
[11] = glycylglycine buffer, pH 4, pH 4.0, read-out: Solubility pH 4.0
[12] = glycylglycine buffer, pH 5, pH 5.0, read-out: Solubility pH 5.0
[13] = bistrispropane buffer, pH 7, pH 7.0, 18 hours at room temperature, Table 3, read-out: Solubility pH 7.0
[14] = bistrispropane buffer, pH 7, pH 7.0, Table 8, read-out: Solubility pH 7.0

SMILES | EC50 [1] | ThT pH 4.0 lag time ([2]; ThT fibrillation assay) | ThT pH 4.0 lag time (h) ([2]; ThT fibrillation assay) | solubility at 18 h [3, 4] | solubility at 18 h [3, 5] | solubility at 18 h [3, 6] | solubility at 18 h [3, 7] | solubility at 18 h [3, 8] | solubility at 18 h [3, 9] | solubility at 18 h [3, 10] | solubility at 18 h [3, 11] | solubility at 18 h [3, 12] | ThT pH 4.0 lag time ([2]; Table 8) | solubility at 18 h [3, 13] | solubility at 18 h [3, 14]
CC[C@H](C)[C@H](NC(=O)[C@@H]1CCCN1C(=O)CNC(=O)[C@H](Cc1ccccc1)NC(=O)[C@H](CC(N)=O)NC(=O)[C@H](CC(N)=O)NC(=O)[C@H](CO)NC(=O)[C@H](CO)NC(=O)[C@H](Cc1c[nH]cn1)NC(=O)[C@H](CCCNC(=N)N)NC(=O)[C@H](CC(C)C)NC(=O)[C@H](Cc1ccccc1)NC(=O)[C@H](CCC(=O)O)NC(=O)[C@H](C)NC(=O)[C@H](CC(C)C)NC(=O)[C@H](CCCNC(=N)N)NC(=O)[C@H](CCC(N)=O)NC(=O)[C@@H](NC(=O)[C@H](C)NC(=O)[C@@H]1CSSC[C@H](NC(=O)[C@H](CCCCN)NC(=O)CC[C@H](NC(=O)CCCCCCCCCCCCCCCCC(=O)O)C(=O)O)C(=O)N[C@@H](CC(N)=O)C(=O)N[C@@H]([C@@H](C)O)C(=O)N[C@@H](C)C(=O)N[C@@H]([C@@H](C)O)C(=O)N1)[C@@H](C)O)C(=O)N[C@@H](CC(C)C)C(=O)N1CCC[C@H]1C(=O)N1CCC[C@H]1C(=O)N[C@H](C(=O)N[C@@H](CC(N)=O)C(=O)N[C@H](C(=O)NCC(=O)N[C@@H](CO)C(=O)N[C@@H](Cc1c[nH]cn1)C(=O)N[C@H](C(=O)N[C@@H](Cc1ccc(O)cc1)C(N)=O)[C@@H](C)O)C(C)C)[C@@H](C)O [Example 61, N-alpha-[(S)-4-Carboxy-4-(17-carboxyheptadecanoylamino)butyryl]-[Glu14,Arg17,His35]-pramlintide] ({C18 diacid-γGlu}-KCNTATCATQRLAEFLRHSSNNFGPILPPTNVGSHTY-NH2; disulfide 2-7 (inferred)) | 0.038 nM | >45 h | >45 h | > 200 µM | > 200 µM | 81 µM (≈ 362 µg/mL) | 50 µM (≈ 224 µg/mL) | 48 µM (≈ 215 µg/mL) | > 200 µM | > 200 µM | > 200 µM | > 200 µM |  |  | 
CC[C@H](C)[C@H](NC(=O)[C@@H]1CCCN1C(=O)CNC(=O)[C@H](Cc1ccccc1)NC(=O)[C@H](CC(N)=O)NC(=O)[C@H](CC(N)=O)NC(=O)[C@H](CO)NC(=O)[C@H](CO)NC(=O)[C@H](Cc1c[nH]cn1)NC(=O)[C@H](CCCNC(=N)N)NC(=O)[C@H](CC(C)C)NC(=O)[C@H](Cc1ccccc1)NC(=O)[C@H](CCC(=O)O)NC(=O)[C@H](C)NC(=O)[C@H](CC(C)C)NC(=O)[C@H](CCCNC(=N)N)NC(=O)[C@H](CCC(N)=O)NC(=O)[C@@H](NC(=O)[C@H](C)NC(=O)[C@@H]1CSSC[C@H](NC(=O)[C@H](CCCCN)NC(=O)[C@H](CCC(=O)O)NC(=O)CC[C@H](NC(=O)CCCCCCCCCCCCCCCCC(=O)O)C(=O)O)C(=O)N[C@@H](CC(N)=O)C(=O)N[C@@H]([C@@H](C)O)C(=O)N[C@@H](C)C(=O)N[C@@H]([C@@H](C)O)C(=O)N1)[C@@H](C)O)C(=O)N[C@@H](CC(C)C)C(=O)N1CCC[C@H]1C(=O)N1CCC[C@H]1C(=O)N[C@H](C(=O)N[C@@H](CC(N)=O)C(=O)N[C@H](C(=O)NCC(=O)N[C@@H](CO)C(=O)N[C@@H](Cc1c[nH]cn1)C(=O)N[C@H](C(=O)N[C@@H](Cc1ccc(O)cc1)C(N)=O)[C@@H](C)O)C(C)C)[C@@H](C)O [Example 62, N-alpha-[(S)-4-Carboxy-4-(17-carboxyheptadecanoylamino)butyryl]-Glu-[Glu14,Arg17,His35]-pramlintide] ({C18 diacid-γGlu}-EKCNTATCATQRLAEFLRHSSNNFGPILPPTNVGSHTY-NH2; disulfide 3-8 (inferred); C-terminus assumed) | 0.281 nM | 30 h | 30 h | > 200 µM | > 200 µM | > 200 µM | > 200 µM | > 200 µM | > 200 µM | > 200 µM | > 200 µM | > 200 µM | 30 h | > 200 µM | > 200 µM
CC(C)C[C@H](NC(=O)[C@H](CCCNC(=N)N)NC(=O)[C@H](CCC(N)=O)NC(=O)[C@@H](NC(=O)[C@H](C)NC(=O)[C@@H]1CSSC[C@H](NC(=O)[C@H](CCCCN)NC(=O)CC[C@H](NC(=O)CCCCCCCCCCCCCCCCCCC(=O)O)C(=O)O)C(=O)N[C@@H](CC(N)=O)C(=O)N[C@@H]([C@@H](C)O)C(=O)N[C@@H](C)C(=O)N[C@@H]([C@@H](C)O)C(=O)N1)[C@@H](C)O)C(=O)N[C@@H](C)C(=O)N[C@@H](CCC(=O)O)C(=O)N[C@@H](Cc1ccccc1)C(=O)N[C@@H](CC(C)C)C(=O)N[C@@H](CCCNC(=N)N)C(=O)N[C@@H](Cc1c[nH]cn1)C(=O)N[C@@H](CO)C(=O)N[C@@H](CO)C(=O)N[C@@H](CC(N)=O)C(=O)N[C@@H](CC(N)=O)C(=O)N[C@@H](Cc1ccccc1)C(=O)NCC(=O)N[C@@H](C)C(=O)N1CCC[C@H]1C(=O)N[C@@H](CC(C)C)C(=O)N[C@@H](CO)C(=O)N[C@@H](CO)C(=O)N[C@H](C(=O)N[C@@H](CC(N)=O)C(=O)N[C@H](C(=O)NCC(=O)N[C@@H](CO)C(=O)N[C@@H](Cc1c[nH]cn1)C(=O)N[C@H](C(=O)N[C@@H](Cc1ccc(O)cc1)C(N)=O)[C@@H](C)O)C(C)C)[C@@H](C)O [Example 65, N-alpha-[(S)-4-Carboxy-4-(19-carboxynonadecanoylamino)butyryl]-[Glu14,Arg17,Ala25,Pro26,Ser28,Ser29,His35]-pramlintide] ({C20 diacid-γGlu}-KCNTATCATQRLAEFLRHSSNNFGAPLSSTNVGSHTY-NH2; disulfide 2-7 (inferred); C-terminus assumed) | 1.33 nM | >45 h | >45 h | > 200 µM | > 200 µM | 176 µM (≈ 781 µg/mL) | 96 µM (≈ 426 µg/mL) | 89 µM (≈ 395 µg/mL) | > 200 µM | > 200 µM | > 200 µM | > 200 µM | >45 h | 176 µM (≈ 781 µg/mL) | 176 µM (≈ 781 µg/mL)
CC[C@H](C)[C@H](NC(=O)[C@@H]1CCCN1C(=O)CNC(=O)[C@H](Cc1ccccc1)NC(=O)[C@H](CC(N)=O)NC(=O)[C@H](CC(N)=O)NC(=O)[C@H](CO)NC(=O)[C@H](CO)NC(=O)[C@H](Cc1c[nH]cn1)NC(=O)[C@H](Cc1c[nH]cn1)NC(=O)[C@H](CC(C)C)NC(=O)[C@H](Cc1ccccc1)NC(=O)[C@H](CCC(=O)O)NC(=O)[C@H](C)NC(=O)[C@H](CC(C)C)NC(=O)[C@H](CCCNC(=N)N)NC(=O)[C@H](CCC(N)=O)NC(=O)[C@@H](NC(=O)[C@H](C)NC(=O)[C@@H]1CSSC[C@H](NC(=O)[C@H](CCCCN)NC(=O)[C@H](Cc2c[nH]cn2)NC(=O)CC[C@H](NC(=O)CCCCCCCCCCCCCCCCCCC(=O)O)C(=O)O)C(=O)N[C@@H](CC(N)=O)C(=O)N[C@@H]([C@@H](C)O)C(=O)N[C@@H](C)C(=O)N[C@@H]([C@@H](C)O)C(=O)N1)[C@@H](C)O)C(=O)N[C@@H](CC(C)C)C(=O)N1CCC[C@H]1C(=O)N1CCC[C@H]1C(=O)N[C@H](C(=O)N[C@@H](CC(N)=O)C(=O)N[C@H](C(=O)NCC(=O)N[C@@H](CO)C(=O)N[C@@H](Cc1c[nH]cn1)C(=O)N[C@H](C(=O)N[C@@H](Cc1ccc(O)cc1)C(N)=O)[C@@H](C)O)C(C)C)[C@@H](C)O [Example 66, N-alpha-[(S)-4-Carboxy-4-(19-carboxynonadecanoylamino)butyryl]-His-[Glu14,His17,His35]-pramlintide] ({C20 diacid-γGlu}-HKCNTATCATQRLAEFLHHSSNNFGPILPPTNVGSHTY-NH2; disulfide 3-8 (inferred); C-terminus assumed) | 0.305 nM | >45 h | >45 h | > 200 µM | 155 µM (≈ 716 µg/mL) | 46 µM (≈ 212 µg/mL) | 77 µM (≈ 355 µg/mL) | 144 µM (≈ 665 µg/mL) | > 200 µM | > 200 µM | > 200 µM | > 200 µM |  |  | 
